From ChEMBL document CHEMBL1909046, “DrugMatrix in vitro pharmacology data”

Assays:
[1] = target: T1, Alpha-2C adrenergic receptor (Homo sapiens, UniProt P18825); assay: DRUGMATRIX: Adrenergic Alpha-2C radioligand binding (ligand: [3H] MK-912); format: cell membranes, Sf9, Membrane; conditions: sf9
T1 sequence (P18825 whole entry): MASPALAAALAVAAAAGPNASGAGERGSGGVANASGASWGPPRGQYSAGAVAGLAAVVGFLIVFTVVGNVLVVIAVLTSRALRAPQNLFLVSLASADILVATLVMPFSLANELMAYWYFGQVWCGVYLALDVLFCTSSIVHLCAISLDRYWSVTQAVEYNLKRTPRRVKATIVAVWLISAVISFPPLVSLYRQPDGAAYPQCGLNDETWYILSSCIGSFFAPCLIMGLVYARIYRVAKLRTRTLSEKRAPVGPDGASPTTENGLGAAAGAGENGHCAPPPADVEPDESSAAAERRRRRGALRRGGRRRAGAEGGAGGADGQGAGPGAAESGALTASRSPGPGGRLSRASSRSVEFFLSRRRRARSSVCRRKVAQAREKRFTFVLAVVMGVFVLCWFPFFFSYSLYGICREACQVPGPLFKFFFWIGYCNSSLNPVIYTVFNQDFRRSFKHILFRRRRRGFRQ

Endothelin-1 receptor = target: T2, Endothelin-1 receptor (Homo sapiens, UniProt P25101); format: cell membranes, Membrane; conditions: cho-k1; note: in other assays of this panel Not Active means under 50% inhibition at 10 µM
T2 sequence (P25101 whole entry): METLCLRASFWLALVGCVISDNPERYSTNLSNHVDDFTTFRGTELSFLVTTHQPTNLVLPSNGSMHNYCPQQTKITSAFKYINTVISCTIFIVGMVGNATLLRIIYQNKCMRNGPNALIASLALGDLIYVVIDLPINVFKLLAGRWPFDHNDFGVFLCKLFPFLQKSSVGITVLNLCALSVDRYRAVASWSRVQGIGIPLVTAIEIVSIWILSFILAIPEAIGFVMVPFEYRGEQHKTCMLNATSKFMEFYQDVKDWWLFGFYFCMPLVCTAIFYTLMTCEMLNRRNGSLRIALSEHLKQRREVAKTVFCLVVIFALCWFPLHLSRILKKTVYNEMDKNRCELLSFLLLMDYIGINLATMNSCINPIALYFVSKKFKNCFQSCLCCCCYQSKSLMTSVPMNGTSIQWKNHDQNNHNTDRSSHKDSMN

[2] = DRUGMATRIX: Glutamate, AMPA radioligand binding (ligand: [3H] AMPA); format: cell membranes, Rattus norvegicus, Wistar, Cerebral cortex, Membrane; conditions: Not Active = under 50% inhibition at 10 µM
[3] = target: T3, 3-hydroxy-3-methylglutaryl-coenzyme A reductase (Homo sapiens, UniProt P04035); parameters: species or system Escherichia coli;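 note: enzyme inhibition assay of HMG-CoA reductase using radiolabeled [14C]HMG-CoA as substrate; in other assays of this panel Not Active means under 50% inhibition at 10 µM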
T3 sequence (P04035 whole entry): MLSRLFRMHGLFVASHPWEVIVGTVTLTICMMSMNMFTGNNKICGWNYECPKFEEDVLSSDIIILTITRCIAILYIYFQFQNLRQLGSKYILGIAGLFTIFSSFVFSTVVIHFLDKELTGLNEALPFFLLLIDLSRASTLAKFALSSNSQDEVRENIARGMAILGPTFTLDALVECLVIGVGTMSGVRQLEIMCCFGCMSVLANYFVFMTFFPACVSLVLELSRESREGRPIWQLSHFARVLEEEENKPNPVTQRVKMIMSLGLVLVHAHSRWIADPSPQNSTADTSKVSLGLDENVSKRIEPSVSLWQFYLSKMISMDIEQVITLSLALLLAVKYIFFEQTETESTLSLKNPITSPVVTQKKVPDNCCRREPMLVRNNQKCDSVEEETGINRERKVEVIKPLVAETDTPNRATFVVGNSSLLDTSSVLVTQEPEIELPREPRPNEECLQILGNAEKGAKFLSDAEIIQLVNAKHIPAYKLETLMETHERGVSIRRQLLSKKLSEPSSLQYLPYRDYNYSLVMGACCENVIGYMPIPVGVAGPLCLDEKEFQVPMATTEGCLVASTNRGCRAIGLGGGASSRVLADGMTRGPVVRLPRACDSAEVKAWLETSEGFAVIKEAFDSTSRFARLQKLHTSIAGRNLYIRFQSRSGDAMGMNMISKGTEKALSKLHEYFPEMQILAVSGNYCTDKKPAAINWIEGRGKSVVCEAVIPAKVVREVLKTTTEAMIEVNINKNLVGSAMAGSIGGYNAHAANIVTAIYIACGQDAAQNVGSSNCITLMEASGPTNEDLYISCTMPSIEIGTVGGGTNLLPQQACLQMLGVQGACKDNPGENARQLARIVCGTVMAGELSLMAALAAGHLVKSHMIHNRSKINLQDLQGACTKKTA

Melanocortin receptor 4 = Melanocortin receptor 4 (Homo sapiens, UniProt P32245); format: cell membranes, Membrane; conditions: hek293; note: in other assays of this panel Not Active means under 50% inhibition at 10 µM
Sequence of Melanocortin receptor 4 (P32245 whole entry): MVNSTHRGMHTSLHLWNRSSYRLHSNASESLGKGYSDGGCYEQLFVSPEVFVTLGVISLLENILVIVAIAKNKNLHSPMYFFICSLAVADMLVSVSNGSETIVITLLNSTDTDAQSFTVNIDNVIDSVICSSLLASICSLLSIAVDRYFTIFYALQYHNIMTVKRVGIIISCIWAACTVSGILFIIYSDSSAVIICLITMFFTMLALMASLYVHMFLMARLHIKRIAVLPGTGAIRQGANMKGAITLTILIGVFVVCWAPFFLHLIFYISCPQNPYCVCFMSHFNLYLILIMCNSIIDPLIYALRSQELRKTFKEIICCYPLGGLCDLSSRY

[4] = target: cGMP-specific 3',5'-cyclic phosphodiesterase (Homo sapiens, UniProt O76074); assay: DRUGMATRIX: Phosphodiesterase PDE5 enzyme inhibition (substrate: [3H]cGMP + cGMP); format: tissue-based; conditions: platelet; Not Active = under 50% inhibition at 10 µM
[5] = target: Mitogen-activated protein kinase 3 (Homo sapiens, UniProt P27361); assay: DRUGMATRIX: Protein Serine/Threonine Kinase, ERK1 enzyme inhibition (substrate: Myelin Basic Protein); parameters: species or system Escherichia coli; conditions: Not Active = under 50% inhibition at 10 µM
Sequence of Mitogen-activated protein kinase 3 (P27361 whole entry): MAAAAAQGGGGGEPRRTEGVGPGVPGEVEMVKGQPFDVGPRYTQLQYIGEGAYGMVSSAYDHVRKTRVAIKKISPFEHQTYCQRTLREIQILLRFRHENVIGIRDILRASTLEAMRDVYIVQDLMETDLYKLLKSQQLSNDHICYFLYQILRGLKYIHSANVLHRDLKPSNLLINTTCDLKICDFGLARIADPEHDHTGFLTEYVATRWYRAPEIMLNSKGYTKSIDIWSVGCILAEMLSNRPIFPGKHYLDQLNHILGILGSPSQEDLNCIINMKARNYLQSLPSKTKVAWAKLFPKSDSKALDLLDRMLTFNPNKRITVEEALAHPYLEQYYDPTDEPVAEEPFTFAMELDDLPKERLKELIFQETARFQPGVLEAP

[6] = target: 5-hydroxytryptamine receptor 1B (Rattus norvegicus, UniProt P28564); format: cell membranes, Wistar, Cerebral cortex, Membrane; note: in other assays of this panel Not Active means under 50% inhibition at 10 µM
Sequence of 5-hydroxytryptamine receptor 1B (P28564 whole entry): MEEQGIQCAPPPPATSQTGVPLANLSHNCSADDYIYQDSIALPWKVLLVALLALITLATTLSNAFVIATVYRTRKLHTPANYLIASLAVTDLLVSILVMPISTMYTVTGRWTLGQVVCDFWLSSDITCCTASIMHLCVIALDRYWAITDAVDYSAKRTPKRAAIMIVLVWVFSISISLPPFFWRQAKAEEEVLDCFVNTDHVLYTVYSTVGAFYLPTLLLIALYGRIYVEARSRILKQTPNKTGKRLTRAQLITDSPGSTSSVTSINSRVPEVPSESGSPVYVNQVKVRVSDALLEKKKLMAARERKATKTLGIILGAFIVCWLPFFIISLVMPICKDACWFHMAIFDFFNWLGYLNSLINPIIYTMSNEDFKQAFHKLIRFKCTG

C/C=C/C[C@@H](C)[C@@H](O)[C@H]1C(=O)N[C@@H](CC)C(=O)N(C)CC(=O)N(C)[C@@H](CC(C)C)C(=O)N[C@@H](C(C)C)C(=O)N(C)[C@@H](CC(C)C)C(=O)N[C@@H](C)C(=O)N[C@H](C)C(=O)N(C)[C@@H](CC(C)C)C(=O)N(C)[C@@H](CC(C)C)C(=O)N(C)[C@@H](C(C)C)C(=O)N1C [CYCLOSPORINE]
Not Active: IC50 [1] | IC50 (Endothelin-1 receptor) | IC50 [2] | Ki [2] | IC50 [3] | IC50 (Melanocortin receptor 4) | IC50 [4] | IC50 [5] | IC50 [6]

CN(C)/N=N/c1[nH]cnc1C(N)=O [DACARBAZINE]
Not Active: IC50 [1] | IC50 (Endothelin-1 receptor) | IC50 [2] | Ki [2] | IC50 [3] | IC50 (Melanocortin receptor 4) | IC50 [4] | IC50 [5] | IC50 [6]

COc1ccc2c(c1)[C@]13CCCC[C@@H]1[C@H](C2)N(C)CC3 [DEXTROMETHORPHAN]
Not Active: IC50 [1] | IC50 (Endothelin-1 receptor) | IC50 [2] | Ki [2] | IC50 [3] | IC50 (Melanocortin receptor 4) | IC50 [4] | IC50 [5] | IC50 [6]

CC(=O)Nc1c(I)c(NC(C)=O)c(I)c(C(=O)O)c1I [DIATRIZOIC ACID]
Not Active: IC50 [1] | IC50 (Endothelin-1 receptor) | IC50 [2] | Ki [2] | IC50 [3] | IC50 (Melanocortin receptor 4) | IC50 [4] | IC50 [5] | IC50 [6]

COP(=O)(OC)OC=C(Cl)Cl [DICHLORVOS]
Not Active: IC50 [1] | IC50 (Endothelin-1 receptor) | IC50 [2] | Ki [2] | IC50 [3] | IC50 (Melanocortin receptor 4) | IC50 [4] | IC50 [5] | IC50 [6]

O=C(O)Cc1ccccc1Nc1c(Cl)cccc1Cl [DICLOFENAC]
Not Active: IC50 [1] | IC50 (Endothelin-1 receptor) | IC50 [2] | Ki [2] | IC50 [3] | IC50 (Melanocortin receptor 4) | IC50 [4] | IC50 [5] | IC50 [6]

C[C@H]1O[C@@H](O[C@H]2[C@@H](O)C[C@H](O[C@H]3[C@@H](O)C[C@H](O[C@H]4CC[C@@]5(C)[C@H](CC[C@@H]6[C@@H]5CC[C@]5(C)[C@@H](C7=CC(=O)OC7)CC[C@]65O)C4)O[C@@H]3C)O[C@@H]2C)C[C@H](O)[C@@H]1O [DIGITOXIN]
Not Active: IC50 [1] | IC50 (Endothelin-1 receptor) | IC50 [2] | Ki [2] | IC50 [3] | IC50 (Melanocortin receptor 4) | IC50 [4] | IC50 [5] | IC50 [6]

CCN1CC(CCN2CCOCC2)C(c2ccccc2)(c2ccccc2)C1=O (configuration not stated) [DOXAPRAM]
Not Active: IC50 [1] | IC50 (Endothelin-1 receptor) | IC50 [2] | Ki [2] | IC50 [3] | IC50 (Melanocortin receptor 4) | IC50 [4] | IC50 [5] | IC50 [6]
